Square brackets hold non-standard residues; d marks the D form. Peptide text beside a SMILES is read from it. * marks the point of attachment. Dolaproine = CO[C@@H]([C@@H]1CCCN1)[C@@H](C)C(=O)O; Dil = CC[C@H](C)[C@H](NC)[C@@H](CC(=O)O)OC; X1 = C[C@@H](N*)[C@@H](O)c1ccccc1; NMeV = CN[C@H](C(=O)O)C(C)C
Assays:
Experiment in all cases: In vitro cytotoxicity (cell proliferation inhibition), SRB dye or Cell titer glo
Assay type in all cases: cell-based, human
DLD-1 = details: DLD-1, 144 hours
Description: (§1) The cell proliferation inhibitory activity of the ADC produced according to <Example 2> and the drug alone included in the ADC against cancer cell lines were measured.
(§2) Specifically, human pancreatic cancer cell lines (BxPC-3, Capan-1, and PATU-8988s), breast cancer cell lines (JIMT-1 and MDA-MB-468), gastric cancer cell lines (NCI-N87, SNU-601, and SNU-620), colon cancer cell lines (HCT15, HT29, DLD-1, SW480, and COLO205), an ovarian cancer cell line (OVCAR-3), prostate cancer cell lines (PC-3 and LNCaP), and non-small cell lung cancer cell lines (NCI-H1781, HCC827, Calu-1, and Calu-3), which are commercially available as cancer cell lines, were used. MMAE as a drug alone included in the ADC prepared according to Example 3 and SG2057 (CAS #: 260417-62-7, MedKoo Biosciences) as a PBD dimer were used. 500 cells/well to 5,000 cells/well of each cancer cell line were seeded into a 96-well plate and cultured for 24 hours, and then each of ADC1, ADC2 and ADC3 produced according to Example 3 and the drugs MMAE and SG2057 alone were treated at a concentration of […] to 100 nM (5-fold serial dilution). After 144 hours, the number of living cells was quantified using a sulforhodamine B (SRB) dye or Cell titer glo.

SNU-601 = details: SNU-601, 144 hours
Description: as §1, §2

MDA-MB-468 = details: MDA-MB-468, 144 hours
Description: as §1, §2

HCC827 = details: HCC827, 144 hours
Description: as §1, §2

SNU-620 = details: SNU-620, 144 hours
Description: as §1, §2

Calu-1 = details: Calu-1, 144 hours
Description: as §1, §2

JIMT-1 = details: JIMT-1, 144 hours
Description: as §1, §2

COLO205 = details: COLO205, 144 hours
Description: as §1, §2

BxPC-3 = details: BxPC-3, 144 hours
Description: as §1, §2

PC-3 = details: PC-3, 144 hours
Description: as §1, §2

Patu8988S = details: 144 hours
Description: as §1, §2

Calu-3 = details: Calu-3, 144 hours
Description: as §1, §2

NCI-N87 = details: NCI-N87, 144 hours
Description: as §1, §2

Capan-1 = details: Capan-1, 144 hours
Description: as §1, §2

SW480 = details: SW480, 144 hours
Description: as §1, §2

HCT15 = details: HCT15, 144 hours
Description: as §1, §2

NCI-H1781 = details: NCI-H1781, 144 hours
Description: as §1, §2

HT29 = details: HT29, 144 hours
Description: as §1, §2

OVCAR-3 = details: OVCAR-3, 144 hours
Description: as §1, §2

LNCaP = details: 144 hours
Description: as §1, §2

Structure (SMILES)	CC50 (DLD-1) [nM]	CC50 (SNU-601) [nM]	CC50 (MDA-MB-468) [nM]	CC50 (HCC827) [nM]	CC50 (SNU-620) [nM]	CC50 (Calu-1) [nM]	CC50 (JIMT-1) [nM]	CC50 (COLO205) [nM]	CC50 (BxPC-3) [nM]	CC50 (PC-3) [nM]	CC50 (Patu8988S) [nM]	CC50 (Calu-3) [nM]	CC50 (NCI-N87) [nM]	CC50 (Capan-1) [nM]	CC50 (SW480) [nM]	CC50 (HCT15) [nM]	CC50 (NCI-H1781) [nM]	CC50 (HT29) [nM]	CC50 (OVCAR-3) [nM]	CC50 (LNCaP) [nM]
CC[C@H](C)[C@@H]([C@@H](CC(=O)N1CCC[C@H]1[C@H](OC)[C@@H](C)C(=O)N[C@H](C)[C@@H](O)c1ccccc1)OC)N(C)C(=O)[C@@H](NC(=O)[C@@H](NC)C(C)C)C(C)C [MMAE, monomethyl auristatin E] (H-[NMeV]V[Dil][Dolaproine]-X1)	8.88	0.268	0.64	0.674	0.651	0.971	0.154	0.628	0.606	0.946	0.334	0.4	0.725	0.52	3.83	3.87	0.208	0.33	0.304	0.551
C=C1C[C@H]2C=Nc3cc(OCCCCCOc4cc5c(cc4OC)C(=O)N4CC(=C)C[C@H]4C=N5)c(OC)cc3C(=O)N2C1 [SG2057]	0.05	–	–	–	–	–	–	–	–	–	–	–	–	–	–	0.161	–	0.02	–	–
